Test results published in the NIST ThermoML archive (doi:10.1021/acs.jced.8b00201).

Experiment: xn = mol fraction of the nth substance listed
Details: 100 kPa, Liquid; for viscosity: Concentric cylinders viscometry; for mass density: Vibrating tube method

O=C1CCCCC1 [cyclohexanone] + CCCCCCCCCCO
Details	mass density [kg/m3]	viscosity [mPa·s]
293.15 K, x1 = 0.0807	834.5	12.23
293.15 K, x1 = 0.1613	840	10.39
293.15 K, x1 = 0.2387	845.6	8.73
293.15 K, x1 = 0.3519	855.1	6.64
293.15 K, x1 = 0.4407	863.4	5.35
293.15 K, x1 = 0.5568	875.9	3.94
293.15 K, x1 = 0.6517	887.7	3.08
293.15 K, x1 = 0.7412	900.4	2.54
293.15 K, x1 = 0.8518	918.6	2.22
293.15 K, x1 = 0.9441	936.5	2.17
293.15 K, x1 = 1	948.8	2.3
298.15 K, x1 = 0.0807	830.9	10
298.15 K, x1 = 0.1613	836.4	8.43
298.15 K, x1 = 0.2387	841.8	7.18
298.15 K, x1 = 0.3519	851	5.67
298.15 K, x1 = 0.4407	859.2	4.69
298.15 K, x1 = 0.5568	871.4	3.56
298.15 K, x1 = 0.6517	883	2.87
298.15 K, x1 = 0.7412	895.4	2.43
298.15 K, x1 = 0.8518	913.3	2.13
298.15 K, x1 = 0.9441	930.9	2.08
298.15 K, x1 = 1	943.1	2.09
303.15 K, x1 = 0.0807	827.4	8.39
303.15 K, x1 = 0.1613	832.6	7.21
303.15 K, x1 = 0.2387	838.1	6.19
303.15 K, x1 = 0.3519	847.2	4.87
303.15 K, x1 = 0.4407	855.2	4.04
303.15 K, x1 = 0.5568	867.3	3.16
303.15 K, x1 = 0.6517	878.7	2.6
303.15 K, x1 = 0.7412	891	2.23
303.15 K, x1 = 0.8518	908.7	1.97
303.15 K, x1 = 0.9441	926.1	1.89
303.15 K, x1 = 1	938.2	1.91
308.15 K, x1 = 0.0807	823.9	7.09
308.15 K, x1 = 0.1613	829.1	6.14
308.15 K, x1 = 0.2387	834.5	5.38
308.15 K, x1 = 0.3519	843.4	4.37
308.15 K, x1 = 0.4407	851.4	3.69
308.15 K, x1 = 0.5568	863.3	2.94
308.15 K, x1 = 0.6517	874.6	2.45
308.15 K, x1 = 0.7412	886.7	2.11
308.15 K, x1 = 0.8518	904.2	1.84
308.15 K, x1 = 0.9441	921.5	1.73
308.15 K, x1 = 1	933.5	1.75
313.15 K, x1 = 0.0807	820.4	5.99
313.15 K, x1 = 0.1613	825.5	5.26
313.15 K, x1 = 0.2387	830.8	4.6
313.15 K, x1 = 0.3519	839.6	3.75
313.15 K, x1 = 0.4407	847.4	3.17
313.15 K, x1 = 0.5568	859.2	2.6
313.15 K, x1 = 0.6517	870.3	2.21
313.15 K, x1 = 0.7412	882.4	1.92
313.15 K, x1 = 0.8518	899.7	1.7
313.15 K, x1 = 0.9441	916.9	1.57
313.15 K, x1 = 1	928.8	1.6
318.15 K, x1 = 0.0807	816.9	5.08
318.15 K, x1 = 0.1613	821.9	4.45
318.15 K, x1 = 0.2387	827.2	3.86
318.15 K, x1 = 0.3519	835.9	3.15
318.15 K, x1 = 0.4407	843.6	2.69
318.15 K, x1 = 0.5568	855.3	2.19
318.15 K, x1 = 0.6517	866.3	1.88
318.15 K, x1 = 0.7412	878.3	1.67
318.15 K, x1 = 0.8518	895.5	1.51
318.15 K, x1 = 0.9441	912.6	1.44
318.15 K, x1 = 1	924.4	1.46
323.15 K, x1 = 0.0807	813.3	4.41
323.15 K, x1 = 0.1613	818.3	3.88
323.15 K, x1 = 0.2387	823.5	3.43
323.15 K, x1 = 0.3519	832.1	2.84
323.15 K, x1 = 0.4407	839.8	2.46
323.15 K, x1 = 0.5568	851.4	2.05
323.15 K, x1 = 0.6517	862.5	1.78
323.15 K, x1 = 0.7412	874.4	1.57
323.15 K, x1 = 0.8518	891.7	1.42
323.15 K, x1 = 0.9441	908.8	1.35
323.15 K, x1 = 1	920.7	1.34
